Results from paper PMC12251151, “Understanding Anti-Obesity Potential of Four Porphyrin Compounds by Investigating Pancreatic Lipase Inhibition” (Molecules, 2025).
Like-named read-outs stand apart in the source and are kept apart here.

What was measured:
pancreatic lipase (PL) [1] = target: T1, pancreatic lipase (PL) (Sus scrofa, UniProt P00591); assay: Pancreatic lipase inhibition assay (4-nitrophenyl laurate substrate, absorbance 420 nm); type: biochemical, porcine; details: 37 °C, 2 h, pH 8.2 Tris-HCl
T1 construct: lipase (porcine pancreas); purchased Shanghai Yuanye Co., Ltd., Shanghai, China; host or cells: porcine pancreas
T1 sequence (P00591 1-450): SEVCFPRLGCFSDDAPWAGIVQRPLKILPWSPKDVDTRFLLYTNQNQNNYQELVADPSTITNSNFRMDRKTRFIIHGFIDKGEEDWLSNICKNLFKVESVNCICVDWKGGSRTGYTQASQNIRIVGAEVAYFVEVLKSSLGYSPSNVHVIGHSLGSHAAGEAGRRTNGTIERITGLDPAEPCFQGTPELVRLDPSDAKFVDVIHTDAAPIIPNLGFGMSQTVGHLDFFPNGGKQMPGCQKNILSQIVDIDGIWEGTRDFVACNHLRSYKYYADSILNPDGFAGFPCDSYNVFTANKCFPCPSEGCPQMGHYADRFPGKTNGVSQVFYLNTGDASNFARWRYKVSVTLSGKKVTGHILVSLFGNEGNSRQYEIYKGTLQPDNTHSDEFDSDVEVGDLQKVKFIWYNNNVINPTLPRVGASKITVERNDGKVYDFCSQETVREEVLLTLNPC
Protocol: A total of 250 mg pancreatic lipase was dissolved in 50 mL ultrapure water. After centrifugation at 5000 r/min for 10 min, the supernatant was taken. Then, 80 mg of 4-nitrophenyl laurate was dissolved in 100 mL of 5 mmol/L sodium acetate solution (pH 5.0, containing 1% triton x-100), and dissolved in a boiling water bath. After cooling to room temperature, it was set aside. […] The blank sample solutions were chromatographic methanol solutions containing 2%, 5%, and 10% DMSO.
The activity of PL was determined by referring to the method and making appropriate modifications. A total of 200 μL of different concentrations of four porphyrin compounds, 500 μL of 4-nitrophenyl laurate (0.80 mg/mL), 400 μL of Tris-HCl buffer (pH 8.2, 0.1 mol/L), and 300 μL of pancreatic lipase (5 mg/mL) were reacted in an incubator at 37 °C for 2 h. The reaction solution was centrifuged at 12,000 rpm for 5 min, and 200 μL of the supernatant was added to a 96-well plate.

pancreatic lipase (PL) [2] = target: T1, pancreatic lipase (PL); assay: Fluorescence quenching and binding interaction with PL (Stern-Volmer, double logarithmic, Van't Hoff); set-up: species or system porcine; details: for Fluorescence quenching mechanism on PL: Stern-Volmer analysis; for Fluorescence quenching mechanism on PL / ΔH^0 / ΔS^0: 298-310 K; for ΔH^0 / ΔS^0: Van't Hoff; for Main driving forces of binding to PL: from signs of ΔH^0 and ΔS^0; for Kd: read-out: Ka (binding constant) (converted)
Text: Judged by the Stern–Volmer equation, the formula is referred to (3):(3) F0/F=1+KSV[Q]=1+Kqτ0[Q],
The modified Stern–Volmer equation [34], formula reference (4):(4) F0/F=e^KSV[Q]=e^Kqτ0[Q],
The double logarithmic equation:(5) logF0−F/F=logKa+nlog[Q],
In the formula, F0 and F are the fluorescence intensities of the enzyme before and after the addition of four porphyrin compounds. KSV and Kq represent the fluorescence quenching constant and the quenching rate constant, respectively. τ0 (10^−8 s) is the average lifetime of the fluorescent molecule in the absence of the fluorescence quencher. [Q] denotes the concentration of the porphyrin compound. Ka is the binding constant. n is the number of binding sites.
The relevant thermodynamic parameters were calculated by Equations (6) and (7), and the Van’t Hoff curves of four porphyrin compounds and enzymes were obtained:(6) lnKa=−ΔH^0/RT+ΔS^0/R, (7) ΔG^0=ΔH^0−TΔS^0=−RTlnKa,
The method of Li et al. was referred to and appropriate changes were made. A series of concentrations of porphyrin compounds were mixed with pancreatic lipase (5 mg/mL) at a volume ratio of 1:1 and incubated at 298, 304, and 310 K for 5 min. The excitation wavelength of the Hitachi fluorescence spectrometer F-7000 ([…], Japan) was set to 280 nm, the slit width was set to 5 nm, and the scanning range was set to 300–500 nm. In order to eliminate the influence of ‘internal filtering effect’ [42], the following formula is used for correction. Fcor=Fobse^(Aex+Aem)/2 , where Fcor and Fobs are the corrected fluorescence intensity and the experimentally measured fluorescence intensity, and Aex and Aem are the UV absorption values of the system at the excitation and emission wavelengths, respectively.

pancreatic lipase (PL) [3] = target: T1, pancreatic lipase (PL); assay: FT-IR spectroscopy secondary structure analysis of PL-porphyrin complex; set-up: species or system porcine; details: PL:porphyrin molar ratio 1:2; for β-Antiparallel of PL in complex: PL alone 7.78 ± 0.02; for Random Coil of PL in complex: PL alone 16.30 ± 0.04; for β-Turn of PL in complex: PL alone 23.12 ± 0.03; for α-Helix of PL in complex: PL alone 25.48 ± 0.06; for β-Sheet of PL in complex: PL alone 27.31 ± 0.06
Text: The effects of four porphyrin compounds on the secondary structure of PL were further studied by FT-IR spectroscopy. The amide I band (1700–1600 cm^−1, mainly C=O stretching) and the amide II band (1600–1500 cm^−1, mainly C-N stretching) are important spectral bands for studying the secondary structure of proteins. Because the regions of amide I band located at 1649–1660, 1615–1637, 1661–1680, 1638–1648, and 1681–1692 cm^−1 after curve fitting represent α-helix, β-sheet, β-turn, random coil and β-antiparallel, respectively, and the signal intensity is high, it is more widely evaluated than the amide II band.
The pancreatic lipase-porphyrin compound solution with a molar ratio of 1:2 was placed in a freeze-centrifugal concentrator Auto R1-plus (Beijing Jiaimu, Beijing, China). The dried solid samples were obtained and mixed with dried KBr, ground, and pressed into tablets, and then detected by Nicolet IS-50 (ThermoFisher, Waltham, MA, USA) instrument. The scanning range was 400–4000 cm^−1 and the resolution was 4 cm^−1. Peakfit V4.12 software was used to fit the amide I region (1600–1700 cm^−1) of pancreatic lipase.

Row | Structure (SMILES) | IC50 (pancreatic lipase (PL) [1]) | Fluorescence quenching mechanism on PL (pancreatic lipase (PL) [2]) | Kq (quenching rate constant) (pancreatic lipase (PL) [2]; T 298 K) | Ksv (fluorescence quenching constant) (pancreatic lipase (PL) [2]; T 298 K) | n (number of binding sites) (pancreatic lipase (PL) [2]; T 298 K) | ΔG^0 (pancreatic lipase (PL) [2]; T 298 K) | Kq (quenching rate constant) (pancreatic lipase (PL) [2]; T 304 K) | Ksv (fluorescence quenching constant) (pancreatic lipase (PL) [2]; T 304 K) | n (number of binding sites) (pancreatic lipase (PL) [2]; T 304 K) | ΔG^0 (pancreatic lipase (PL) [2]; T 304 K) | Kq (quenching rate constant) (pancreatic lipase (PL) [2]; T 310 K) | Ksv (fluorescence quenching constant) (pancreatic lipase (PL) [2]; T 310 K) | n (number of binding sites) (pancreatic lipase (PL) [2]; T 310 K) | ΔG^0 (pancreatic lipase (PL) [2]; T 310 K) | ΔH^0 (pancreatic lipase (PL) [2]) | ΔS^0 (pancreatic lipase (PL) [2]) | Main driving forces of binding to PL (pancreatic lipase (PL) [2]) | β-Antiparallel of PL in complex (pancreatic lipase (PL) [3]) | Random Coil of PL in complex (pancreatic lipase (PL) [3]) | β-Turn of PL in complex (pancreatic lipase (PL) [3]) | also measured
1 | O=C([O-])c1ccc(C2=C3C=CC(=N3)C(c3ccc(C(=O)[O-])cc3)=C3C=CC(=N3)C(=c3ccc(=C([O-])[O-])cc3)c3ccc([n-]3)C(c3ccc(C(=O)[O-])cc3)=C3C=CC2=N3)cc1.[67Cu+2].[H+].[H+].[H+].[H+] [Cu-TCPP, Cu (II) meso-Tetra (4-carboxyphenyl) porphine] | 249 µM | static quenching | 2.36 ± 0.01 ×10^12 L/mol/s | 2.36 ± 0.01 ×10^4 L/mol | 0.93 | -5.631 ± 0.019 kcal/mol | 2.33 ± 0.03 ×10^12 L/mol/s | 2.33 ± 0.03 ×10^4 L/mol | 0.95 | -5.851 ± 0.012 kcal/mol | 2.32 ± 0.03 ×10^12 L/mol/s | 2.32 ± 0.03 ×10^4 L/mol | 0.97 | -6.064 ± 0.012 kcal/mol | 5.1 ± 0.0096 kcal/mol | 150.70 ± 0.07 J/mol/k | hydrophobic forces | 0.87 ± 0.01% | 23.40 ± 0.06% | 13.51 ± 0.03% | Ka (binding constant) (pancreatic lipase (PL) [2]; T 298 K): 0.13 ± 0.01 ×10^5 L/mol; Ka (binding constant) (pancreatic lipase (PL) [2]; T 304 K): 0.16 ± 0.01 ×10^5 L/mol; Ka (binding constant) (pancreatic lipase (PL) [2]; T 310 K): 0.19 ± 0.01 ×10^5 L/mol; α-Helix of PL in complex (pancreatic lipase (PL) [3]): 15.78 ± 0.05%; β-Sheet of PL in complex (pancreatic lipase (PL) [3]): 46.44 ± 0.13%
2 | Nc1ccc(-c2c3nc(c(-c4ccc(N)cc4)c4ccc([nH]4)c(-c4ccc(N)cc4)c4nc(c(-c5ccc(N)cc5)c5ccc2[nH]5)C=C4)C=C3)cc1 [TAPP, 5,10,15,20-Tetrakis (4-aminophenyl) porphyrin] | 236 µM | static quenching | 9.70 ± 0.11 ×10^12 L/mol/s | 9.70 ± 0.11 ×10^4 L/mol | 1.05 | -7.118 ± 0.012 kcal/mol | 8.80 ± 0.06 ×10^12 L/mol/s | 8.80 ± 0.06 ×10^4 L/mol | 1.01 | -6.938 ± 0.017 kcal/mol | 8.17 ± 0.08 ×10^12 L/mol/s | 8.17 ± 0.08 ×10^4 L/mol | 0.96 | -6.707 ± 0.014 kcal/mol | -17.28 ± 0.012 kcal/mol | −142.66 ± 0.06 J/mol/k | hydrogen bonds and van der Waals forces | 8.26 ± 0.02% | 24.25 ± 0.07% | 18.09 ± 0.04% | Kd (pancreatic lipase (PL) [2]; T 298 K): 6.02 µM; Kd (pancreatic lipase (PL) [2]; T 304 K): 10.3 µM; Kd (pancreatic lipase (PL) [2]; T 310 K): 18.5 µM; α-Helix of PL in complex (pancreatic lipase (PL) [3]): 12.81 ± 0.03%; β-Sheet of PL in complex (pancreatic lipase (PL) [3]): 36.59 ± 0.07%
